From PubChem BioAssay AID1996
In brackets after ≈: the same amount, converted by molar mass.

Conditions: buffer; pH 7.4; 200.0 µM

Row | Compound | solubility kinetic [µg/mL]
1 | O=C1NCC(O)=C1C=Nc1ccccc1O | > 32.7
2 | O=C1NC2(CCCCCC2)C(=O)N1Cc1ccccc1Br | 17.1 (≈ 48.7 µM)
3 | CN(C)c1ccc(C(=O)C(=O)c2ccccc2)cc1 | 10.8 (≈ 42.6 µM)
4 | COc1ccc(C(C)=O)cc1COC(=O)c1cccnc1Cl | 5.7 (≈ 17.8 µM)
5 | Cn1cccc1C(=O)OCC(=O)NCCCc1ccccc1 | > 45.1
6 | CCOC(=O)c1c(/N=C/N(C)C)sc(C)c1C | 37.3 (≈ 147 µM)
7 | CC(C)C(=O)Nc1ccc(Oc2ccc3c(c2)C(=O)NC3=O)cc1 | < 0.3
8 | CC(=O)NC(Cc1c[nH]c2ccccc12)C(=O)NCc1ccco1 (stereo not given) | > 48.8
9 | CS(=O)(=O)N1CCn2c1nc1ccccc12 | > 35.6
10 | CC1CN(C(=O)COC(=O)c2ccc(C#N)cc2)CC(C)O1 (stereo not given) | > 45.3
11 | COc1cccc2cc(C(=O)NCc3ccc(C)cc3)c(=N)oc12 | 3 (≈ 9.31 µM)
12 | Cc1cccc(NC(=O)OC2CN3CCC2CC3)c1 (stereo not given) | > 39.1
13 | O=C(Oc1c(-c2ccccc2)c(=O)n2c3c(cccc13)CC2)c1ccc(Cl)cc1 | < 0.9
14 | CN(C)c1ccc(NC(=O)c2ccc(N3CCOCC3)nc2)cc1 | 20.4 (≈ 62.5 µM)
15 | COC(=O)[C@H](C)NC(=O)NCc1ccccc1 | > 35.4
16 | CCc1cn([C@H]2C[C@H](O)[C@@H](CO)O2)c(=O)[nH]c1=O | > 38.4
17 | COC(=O)c1ccc(COc2ccc(/C=N/O)cc2OC)o1 | > 45.8
18 | O=C(CSc1ccccc1F)NC(=O)c1ccc(Cl)cc1 | 8.5 (≈ 26.3 µM)
19 | CCCCOc1ccc(C(=O)OCC(=O)NC2CCCC2)cc1 | 5.5 (≈ 17.2 µM)
20 | CSc1nc(N)nc(N(C)C)n1 | 24.3 (≈ 131 µM)
21 | NC(=O)CSc1nc(-c2ccccc2)nc2c1CCCC2 | 0.5 (≈ 1.67 µM)
22 | O=C(Cn1cc([N+](=O)[O-])cn1)N1CCN(c2ccccc2)CC1 | > 47.3
23 | COc1cccc(NC(=S)N(CCN(C)C)C(C)c2cccnc2)c1 (stereo not given) | > 53.8
24 | Cc1cccc(NC(=S)N2CCCC2)c1 | > 33

Row | Compound | solubility kinetic [µg/mL]
25 | CC(C)Sc1nc2c([nH]1)c(=N)ncn2Cc1ccccc1 | > 44.9
26 | O=C(COc1ccccc1)NCCSCc1ccccc1Cl | 14.7 (≈ 43.8 µM)
27 | C(=C\c1ccc2ccccc2n1)/c1ccccc1 | 0.5 (≈ 2.16 µM)
28 | O=C1CC2C(=O)NCCN2C(=NC(=O)c2ccccc2)N1 (stereo not given) | 41.2 (≈ 144 µM)
29 | COc1ccccc1S(=O)(=O)N1CCn2cccc2C1C (stereo not given) | > 46
30 | CCc1cccc(NC(=S)N2CCC(c3ccccc3)C2)c1 (stereo not given) | 4.6 (≈ 14.8 µM)
31 | Cc1cc(C)c2c(N)c(C(=O)c3ccccc3)sc2n1 | < 0.3
32 | Cc1ccc(S(=O)(=O)N2CCOCC2)cc1C(=O)OCC(=O)N1CCCC1=O | > 61.6
33 | CCCc1cc(=O)[nH]c(SCC(=O)N2c3ccccc3NC(=O)C2(C)C)n1 | 57.4 (≈ 149 µM)
34 | Cc1ccc2c(C)cc(=S)[nH]c2c1 | 7.1 (≈ 37.5 µM)
35 | CCOC(=O)C(=CNc1ccc(N2CCOCC2)cc1)C(=O)OCC | > 52.3
36 | COc1ccc(NC(=O)c2cc(-c3ccncc3)nc3ccccc23)c(OC)c1 | 4.2 (≈ 10.9 µM)
37 | CCc1cccc(C)c1NC(=O)C1CCCN(S(C)(=O)=O)C1 (stereo not given) | > 48.7
38 | N#CCc1ccc(NC(=O)Nc2cccc3ccccc23)cc1 | 0.6 (≈ 1.99 µM)
39 | CC(C)N(Cc1ccccc1)C(=O)CN1C(=O)c2ccccc2C1=O | > 50.5
40 | Cc1nc2c(cnn2-c2ccccc2)c(=O)[nH]1 | > 33.9
41 | CCOC(=O)C(CC)Sc1cc(C)nc2ccc(OC)cc12 (stereo not given) | 34.8 (≈ 109 µM)
42 | CC(=O)c1c(C)[nH]c(C(=O)OCC(=O)c2ccc3c(c2)NC(=O)CO3)c1C | 10.5 (≈ 28.4 µM)
43 | CCn1cc(C=C2C(=O)N(C)C(=O)N(C)C2=O)c2ccccc21 | 1 (≈ 3.21 µM)
44 | Cn1c(C(=O)O)ccc1S(=O)(=O)N(Cc1ccccc1)Cc1ccccc1 | > 57.7
45 | CCOC(=O)c1c(CC(C)C)csc1NC(=O)c1ccccc1C(=O)O | 54.1 (≈ 144 µM)
46 | COc1ccc(NC(=S)N2c3ccccc3CC2C)cc1OC (stereo not given) | 42.4 (≈ 129 µM)
47 | Cc1cccc(OCC(=O)NCc2ccc(F)cc2)c1 | 23.4 (≈ 85.6 µM)
48 | COc1ccccc1-c1noc(CCCC(=O)N2CCOCC2)n1 | > 49.7

Row | Compound | solubility kinetic [µg/mL]
49 | CCc1ccccc1N1CC(C(=O)Nc2cc(C)on2)CC1=O (stereo not given) | > 47
50 | O=[N+]([O-])c1cccc(-c2csc(CS(=O)(=O)Cc3ccco3)n2)c1 | 0.6 (≈ 1.65 µM)
51 | O=C(CSc1ncnc2sccc12)NC1CCS(=O)(=O)C1 (stereo not given) | > 51.5
52 | Cc1ccc(F)cc1N=Cc1c(O)c2ccccc2oc1=O | < 0.6
53 | Cc1nn(CC(=O)NC(C)c2ccccc2)c(C)c1[N+](=O)[O-] (stereo not given) | > 45.3
54 | COC(=O)C(N)Cc1ccc(O)c(O)c1.Cl (stereo not given) | 24.4
55 | Cc1ccc(OCC(=O)NCCNC(=O)c2ccco2)cc1 | 32.9 (≈ 109 µM)
56 | CC(C)n1c(=S)[nH]c2cc(Cl)ccc21 | 11 (≈ 48.5 µM)
57 | O=C(Cc1ccccc1)N/N=C/c1cccnc1 | > 35.9
58 | O=C(O)CCc1ccc(-c2ccccc2)n1-c1cccc(C(=O)O)c1 | > 50.3
59 | CCc1ccc2oc(C(=O)Nc3cccnc3)c(C)c2c1 | 1 (≈ 3.57 µM)
60 | COC(=O)N1CCN(CCc2ccccc2)CC1 | > 37.2
61 | O=C(CN1C(=O)NC2(CCc3ccccc32)C1=O)Nc1ccccc1Cl (stereo not given) | > 55.5
62 | CNS(=O)(=O)c1cc(Cl)ccc1Sc1ccccc1C(=O)O | > 53.7
63 | Cc1nc2ccccc2n1CCOc1ccccc1 | > 37.8
64 | CCOc1ccccc1NC(=O)C1C2CCC(O2)C1C(=O)O (stereo not given) | > 45.8
65 | Cc1cc(C)c(-c2c(O)c3ccccc3n(C)c2=O)c(C)c1 | > 44
66 | COc1ccc(C(=O)OCC(=O)Nc2c(C)n(C)n(-c3ccccc3)c2=O)cc1 | > 59.3
67 | CCOc1ccc(NC(=O)CNc2cccc(S(=O)(=O)N3CCCCCC3)c2)cc1OCC | 18.8 (≈ 39.5 µM)
68 | Cn1c(=O)c2ccccc2n(CC(=O)NCCC2=CCCCC2)c1=O | 14.6 (≈ 42.8 µM)
69 | COCCCn1c(=O)c2ccccc2n(CC(=O)NC2CCCC2)c1=O | > 53.9
70 | CN(C)C(CNC(=O)c1c(F)cccc1Cl)c1ccco1 (stereo not given) | > 46.6
71 | N#Cc1cc(N)ccc1-n1cccc1 | 27.2 (≈ 148 µM)
72 | Clc1ccc(N2CCN(c3ccnc(Cl)n3)CC2)cc1 | 2.3 (≈ 7.44 µM)

Row | Compound | solubility kinetic [µg/mL]
73 | COC(=O)Nc1ccc(S(=O)(=O)Nc2cnc3ccccc3n2)cc1 | > 53.8
74 | O=C(Oc1ccccc1)N1CCOCC1 | > 31.1
75 | NC1=NC(=O)/C(=C/c2ccccc2OCC(=O)Nc2ccc(F)cc2)S1 | 3.8 (≈ 10.2 µM)
76 | O=P(Nc1ccccc1)(Oc1ccccc1)Oc1ccccc1 | < 0.7
77 | NS(=O)(=O)c1ccc(CCNC(=S)NC2CCCCC2)cc1 | > 51.2
78 | CSc1cccc(NC(=O)CCCNC(=O)c2ccc(Cl)cc2)c1 | 4.5 (≈ 12.4 µM)
79 | COc1ccc([N+](=O)[O-])cc1NC(=O)CCSCCc1ccccn1 | > 54.2
80 | Cc1ccc(NC(=O)COC(=O)C2=NNC(=O)CC2)c(Br)c1 | > 55.2
81 | Cc1cc(C)cc(OCC(O)CN2CC(C)OC(C)C2)c1.Cl (stereo not given) | > 49.5
82 | COc1ccc(C(=O)NCC(=O)OCC(=O)N2CC(C)OC(C)C2)cc1OC (stereo not given) | > 59.2
83 | CC(C)(C)c1ccc(C(=O)NCCNC(=O)c2ccco2)cc1 | 39.5 (≈ 126 µM)
84 | Cc1cc(C)c(S(=O)(=O)NCc2ccccn2)cc1C | > 43.6
85 | CC(=O)Cn1c(=O)oc2ccccc21 | 27.1 (≈ 142 µM)
86 | Fc1ccccc1COc1ccc(C(=S)N2CCCC2)cc1 | 3.5 (≈ 11.1 µM)
87 | CCc1ccc(CN2CCSCC2)cc1 | 8.5 (≈ 38.4 µM)
88 | Cc1ccc(CCC(=O)Nc2ccc([N+](=O)[O-])cc2)o1 | 30.9 (≈ 113 µM)
89 | CC(=O)N(CCc1cccc(C)c1)Cc1cc2cc(C)ccc2[nH]c1=O | 1.1 (≈ 3.16 µM)
90 | CS(=O)(=O)c1ccc(C(=O)N2CC(=O)Nc3ccccc32)cc1 | > 49.6
91 | CCOc1ccc(C2C([N+](=O)[O-])=C(C)N(C)C(=O)N2C)cc1OC (stereo not given) | > 50.3
92 | COc1cccc(CNC2CCCCCCC2)c1OC | 31.6 (≈ 114 µM)
93 | Cc1ccccc1Sc1ccc(N)cn1 | 31.4 (≈ 145 µM)
94 | CC(C)C[C@H](NC(=O)Nc1ccc2c(c1)OCCO2)C(=O)O | 41.1 (≈ 133 µM)
95 | Cc1ccc(C)c(NC(=O)CCC(=O)NN=C2CCCC2)c1 | > 45.2
96 | COc1ccc(-c2nnc(SCC(=O)N(C)C3CCS(=O)(=O)C3)n2C(C)C)cc1 (stereo not given) | > 65.8

Row | Compound | solubility kinetic [µg/mL]
97 | Cc1ccc(Nc2c([N+](=O)[O-])ccc3nonc23)cc1C | 0.4 (≈ 1.41 µM)
98 | Cc1ccc(S(=O)(=O)N2CCOCC2)cc1NC(=O)CN1C(=O)NC(C)(c2ccc(Cl)cc2Cl)C1=O (stereo not given) | 46.1 (≈ 83 µM)
99 | CCOC(=O)/C(C#N)=C\c1ccc(OC)c(OC)c1 | 2.4 (≈ 9.19 µM)
100 | Cc1ccc2sc(N(CCN(C)C)C(=O)c3ccc4ccccc4c3)nc2c1C.Cl | 0.8
101 | O=C(Cc1csc(-c2ccccc2)n1)NCc1ccco1 | 39.1 (≈ 131 µM)
102 | O=C(NCc1ccco1)c1cccc(Br)c1 | 39 (≈ 139 µM)
103 | COc1ccccc1/C=C/CN1CCSCC1 | > 37.4
104 | CC1CCCCN1C(=S)NC(=O)c1ccccc1 (stereo not given) | > 39.4
105 | CC1(C(=O)Nc2nc3ccc(S(C)(=O)=O)cc3s2)CC1(Cl)Cl (stereo not given) | 52.1 (≈ 137 µM)
106 | COc1ccc(NC(=O)c2ccccc2-c2ccccc2)c(C)c1 | 7.2 (≈ 22.7 µM)
107 | O=C(NC(=S)Nc1cccnc1Cl)c1ccco1 | 32.2 (≈ 114 µM)
108 | COc1cc(/C=C2\SC(N)=NC2=O)cc(Br)c1O | 1.7 (≈ 5.16 µM)
109 | Cn1c2ccc(F)cc2c2nc3ccccc3nc21 | 0.7 (≈ 2.79 µM)
110 | Cn1c(SCc2ccccc2C#N)nc2ccccc2c1=O | 1 (≈ 3.25 µM)
111 | CC(C)N1CC(C(=O)Nc2ccc(Cl)c(Cl)c2)CC1=O (stereo not given) | > 47.3
112 | COc1ccccc1CNC(=O)CCc1cn(C)c2ccccc12 | 39.2 (≈ 122 µM)
113 | COCCn1c(SC2CCOC2=O)nc2ccccc2c1=O (stereo not given) | > 48.1
114 | N#Cc1c(F)cccc1NCc1cccs1 | 1.3 (≈ 5.6 µM)
115 | O=C(NCCc1ccccc1)C1(S(=O)(=O)c2ccc(Cl)cc2)CC1 | 33.9 (≈ 93.2 µM)
116 | CC(=O)c1c(C)[nH]c(C(=O)CN(C)CC(=O)Nc2ccccc2Cl)c1C | > 56.4
117 | CC(C)=CCN1CCN(Cc2cccc3nccnc23)CC1CCO (stereo not given) | > 51.1
118 | COc1ccc(C(=O)NCCc2c[nH]c3ccccc23)cc1 | 42.6 (≈ 145 µM)
119 | CCOC(=O)CNc1nc(Cl)nc(NC(C)(C)C)n1 | > 43.2
120 | Cc1c(Cl)cccc1NC(=O)CCN1C(=O)NC(C)(C)C1=O | > 48.6
